For orientation: IC50 means the point on the concentration scale where inhibition reaches its midpoint.

The record followed here is patent publication EP4603105A1, “PHARMACEUTICAL COMPOSITION CONTAINING CYCLIC COMPOUND HAVING SELECTIVE KRAS INHIBITORY EFFECT AGAINST HRAS AND NRAS” (CHUGAI SEIYAKU KABUSHIKI KAISHA, priority 2022, dated 2024).

Molecules are shown by their SMILES.

The target of one test is HRAS wild-type protein (Homo sapiens, UniProt P01112). Briefly: Binding to HRAS by surface plasmon resonance (SPR), KD and KD ratio to KRAS. As to conditions: ratio of the KD value with respect to HRAS wild-type protein to the KD value with respect to KRAS. In short, it runs like this:
(§1)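 Single-cycle kinetics on GDP-loaded biotin-Avi RAS captured to ~100–300 RU; 75 s ascending injections, 100 µL/min, 30°C. HBS pH 7.4 + 10 mM MgCl2/10 µM GDP/4% DMSO. 1:1 fit, KD.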

The test system of test [1] is human lung cancer strain NCI-H441. Format: cell-based. In short, it runs like this:
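Proliferation was scored by […] measured after the reagent was added to cultures kept at 37°C in 5% carbon dioxide.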

In test [2] the target is GDP-bound NRAS wild-type protein (Homo sapiens, UniProt P01111). Briefly: Binding to NRAS by surface plasmon resonance (SPR), KD and KD ratio to KRAS. As to conditions: ratio of the KD value with respect to GDP-bound NRAS wild-type protein to the KD value with respect to KRAS. In short, it runs like this:
as §1
In general terms: In SPR one partner is held on a chip, and binding of the other changes the refractive index at the surface.

Sequence of GDP-bound NRAS wild-type protein (P01111 whole entry): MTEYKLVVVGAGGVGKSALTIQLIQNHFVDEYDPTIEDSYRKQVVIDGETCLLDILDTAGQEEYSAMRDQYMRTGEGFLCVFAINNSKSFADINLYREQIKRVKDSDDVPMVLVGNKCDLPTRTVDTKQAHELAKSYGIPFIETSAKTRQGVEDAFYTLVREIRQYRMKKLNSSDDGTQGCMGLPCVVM
Sequence of HRAS wild-type protein (P01112 whole entry): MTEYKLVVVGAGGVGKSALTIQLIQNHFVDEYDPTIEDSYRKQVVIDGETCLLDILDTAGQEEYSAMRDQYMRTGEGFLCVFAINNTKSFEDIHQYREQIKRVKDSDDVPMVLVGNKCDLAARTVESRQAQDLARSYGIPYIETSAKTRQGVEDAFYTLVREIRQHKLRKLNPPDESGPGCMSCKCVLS

On to `CC[C@H](C)[C@@H]1NC(=O)[C@H](CC(C)C)N(C)C(=O)C[C@@H](C(=O)N2CCOCC2)N(C)C(=O)[C@H](C2CCCC2)N(C)C(=O)C2(CCCC2)NC(=O)[C@@H]2CCCN2C(=O)[C@H](CCc2ccc(C(F)(F)F)c(Cl)c2)NC(=O)CN(C)C(=O)[C@H](Cc2ccc(Cl)cc2)N2CCCCC[C@@H](C2=O)N(C)C(=O)CN(C)C1=O` [PP0613], for which the “HRAS /KRAS” value on HRAS wild-type protein is “B (a compound having 3 or more and less than 10 is denoted as B)”. The molecule further returned an IC50 in test [1] of 42.4 nM. For the same molecule, in test [2], the “NRAS /KRAS” value was “B (a compound having 3 or more and less than 10 is denoted as B)”.

Regarding `CC[C@H](C)[C@@H]1NC(=O)[C@H](CC(C)C)N(C)C(=O)C[C@@H](C(=O)N2CCOCC2)N(C)C(=O)[C@H](C2CCCC2)N(C)C(=O)C2(CCCC2)NC(=O)[C@@H]2CCCN2C(=O)[C@H](CCc2ccc(C(F)(F)F)c(Cl)c2)NC(=O)CN(C)C(=O)[C@H](Cc2ccc(OC)cc2)N2CCCCC[C@@H](C2=O)N(C)C(=O)CN(C)C1=O` [PP0614], the “HRAS /KRAS” value at HRAS wild-type protein was “B (a compound having 3 or more and less than 10 is denoted as B)”. In test [1], this molecule came in with an IC50 of 110 nM. Moreover, the “NRAS /KRAS” value in test [2] is “B (a compound having 3 or more and less than 10 is denoted as B)”.

Take `CC[C@H](C)[C@@H]1NC(=O)[C@H](CC(C)C)N(C)C(=O)C[C@@H](C(=O)N2CCOCC2)N(C)C(=O)[C@H](C2CCCC2)N(C)C(=O)C2(CCCC2)NC(=O)[C@@H]2CCCN2C(=O)[C@H](CCc2ccc(C(F)(F)F)c(Cl)c2)NC(=O)CN(C)C(=O)[C@H](Cc2ccc(OC(F)(F)F)cc2)N2CCCCC[C@@H](C2=O)N(C)C(=O)CN(C)C1=O` [PP0615]: the “HRAS /KRAS” value on HRAS wild-type protein is “B (a compound having 3 or more and less than 10 is denoted as B)”. This molecule had a half-inhibitory concentration (IC50) in test [1] of 216 nM. Further, the “NRAS /KRAS” value in test [2] is “B (a compound having 3 or more and less than 10 is denoted as B)”.

Take `CC[C@H](C)[C@@H]1NC(=O)[C@H](CC(C)C)N(C)C(=O)C[C@@H](C(=O)N(C)C)N(C)C(=O)[C@H](C2CCCC2)N(C)C(=O)C2(CCCC2)NC(=O)[C@@H]2CCCN2C(=O)[C@H](CCc2ccc(C(F)(F)F)c(Cl)c2)NC(=O)CN(C)C(=O)[C@H](Cc2ccc(C)cc2)N2CC/C=C(/C)C[C@@H](C2=O)N(C)C(=O)CN(C)C1=O` [PP0616]: the “HRAS /KRAS” value on HRAS wild-type protein was “B (a compound having 3 or more and less than 10 is denoted as B)”. In test [1], this molecule had an IC50 of 73.8 nM. In addition, the “NRAS /KRAS” value in test [2] is “B (a compound having 3 or more and less than 10 is denoted as B)”.

As for `CC[C@H](C)[C@@H]1NC(=O)[C@@H](CC(C)C)N(C)C(=O)C[C@@H](C(=O)N(C)C)N(C)C(=O)[C@@H](C2CCCC2)N(C)C(=O)C2(CCCC2)NC(=O)[C@@H]2CCCN2C(=O)[C@H](CCc2ccc(C(F)(F)F)c(Cl)c2)NC(=O)CN(C)C(=O)[C@@H](Cc2ccc(C)cc2)N2CC/C=C\CCN(CC2=O)C(=O)CN(C)C1=O` [PP0618], the “HRAS /KRAS” value at HRAS wild-type protein was “C (A compound having a KD ratio of 0.1 or more and less than 3 is denoted as C)”. Besides, inhibition in test [1] was half-maximal at 79.1 nM (IC50). In test [2], the “NRAS /KRAS” value was “C (A compound having a KD ratio of 0.1 or more and less than 3 is denoted as C)”.

As to `CC[C@H](C)[C@@H]1NC(=O)[C@H](CC(C)C)N(C)C(=O)C[C@@H](C(=O)N(C)C)N(C)C(=O)[C@H](C2CCCC2)N(C)C(=O)C2(CCCC2)NC(=O)[C@@H]2CCCN2C(=O)[C@H](CCc2ccc(C(F)(F)F)c(Cl)c2)NC(=O)CN(C)C(=O)[C@H](Cc2ccc(C(F)(F)F)cc2)N2CC/C=C\COC[C@@H](C2=O)N(C)C(=O)CN(C)C1=O` [PP0622], the “HRAS /KRAS” value on HRAS wild-type protein is “B (a compound having 3 or more and less than 10 is denoted as B)”. The same molecule displayed an IC50 in test [1] of 330 nM. Also, the “NRAS /KRAS” value in test [2] was “B (a compound having 3 or more and less than 10 is denoted as B)”.

As for `CC[C@H](C)[C@@H]1NC(=O)[C@H](CC(C)C)N(C)C(=O)C[C@@H](C(=O)N(C)C)N(C)C(=O)[C@H](C2CCCC2)N(C)C(=O)C2(CCCC2)NC(=O)[C@@H]2CCCN2C(=O)[C@H](CCc2ccc(C(F)(F)F)c(Cl)c2)NC(=O)CN(C)C(=O)[C@H](Cc2ccc(C)cc2)N2CC=CCOC[C@@H](C2=O)N(C)C(=O)CN(C)C1=O` [PP0627], the “HRAS /KRAS” value at HRAS wild-type protein was “C (A compound having a KD ratio of 0.1 or more and less than 3 is denoted as C)”. In test [1], the IC50 came out at 98.3 nM. Besides, the “NRAS /KRAS” value in test [2] is “C (A compound having a KD ratio of 0.1 or more and less than 3 is denoted as C)”.

Consider `CCO[C@@H]1C[C@H]2C(=O)NC3(CCC3)C(=O)N(C)[C@@H](C3CCCC3)C(=O)N(CC)[C@H](C(=O)N(C)C)CC(=O)N(C)[C@@H](CC)C(=O)N[C@@H]([C@@H](C)CC)C(=O)N(C)CC(=O)N(C)[C@H]3CCCCCN(C3=O)[C@@H](Cc3ccc(C(F)(F)F)cc3)C(=O)N(C)CC(=O)N[C@@H](CCc3cc(F)c(C(F)(F)F)c(F)c3)C(=O)N2C1` [PP0633], for which the “HRAS /KRAS” value at HRAS wild-type protein is “B (a compound having 3 or more and less than 10 is denoted as B)”. Besides, in test [1], the IC50 was 116 nM. Besides, the “NRAS /KRAS” value in test [2] was “B (a compound having 3 or more and less than 10 is denoted as B)”.

With `CCO[C@@H]1C[C@H]2C(=O)NC3(CCC3)C(=O)N(C)[C@@H](C3CCCC3)C(=O)N(CCC3CCC3)[C@H](C(=O)N(C)C)CC(=O)N(C)[C@@H](CC)C(=O)N[C@@H]([C@@H](C)CC)C(=O)N(C)CC(=O)N(C)[C@H]3CCCCCN(C3=O)[C@@H](Cc3ccc(C(F)(F)F)cc3)C(=O)N(C)CC(=O)N[C@@H](CCc3cc(F)c(C(F)(F)F)c(F)c3)C(=O)N2C1` [PP0635], the “HRAS /KRAS” value at HRAS wild-type protein was “B (a compound having 3 or more and less than 10 is denoted as B)”. For the same molecule, the IC50 in test [1] stood at 85.6 nM. For the same molecule, the “NRAS /KRAS” value in test [2] is “B (a compound having 3 or more and less than 10 is denoted as B)”.

Take `CCO[C@@H]1C[C@H]2C(=O)NC3(CCC3)C(=O)N(C)[C@@H](C3CCCC3)C(=O)N(CCC3CCCC3)[C@H](C(=O)N(C)C)CC(=O)N(C)[C@@H](CC)C(=O)N[C@@H]([C@@H](C)CC)C(=O)N(C)CC(=O)N(C)[C@H]3CCCCCN(C3=O)[C@@H](Cc3ccc(C(F)(F)F)cc3)C(=O)N(C)CC(=O)N[C@@H](CCc3cc(F)c(C(F)(F)F)c(F)c3)C(=O)N2C1` [PP0636]: the “HRAS /KRAS” value on HRAS wild-type protein is “A (a compound having 10 or more and less than 20 is denoted as A)”. This molecule had an IC50 in test [1] of 729 nM. Besides, the “NRAS /KRAS” value in test [2] is “A (a compound having 10 or more and less than 20 is denoted as A)”.

On to `CCO[C@@H]1C[C@H]2C(=O)NC3(CCC3)C(=O)N(C)[C@@H](C3CCCC3)C(=O)N(CCc3ccccc3)[C@H](C(=O)N(C)C)CC(=O)N(C)[C@@H](CC)C(=O)N[C@@H]([C@@H](C)CC)C(=O)N(C)CC(=O)N(C)[C@H]3CCCCCN(C3=O)[C@@H](Cc3ccc(C(F)(F)F)cc3)C(=O)N(C)CC(=O)N[C@@H](CCc3cc(F)c(C(F)(F)F)c(F)c3)C(=O)N2C1` [PP0637], for which the “HRAS /KRAS” value on HRAS wild-type protein was “B (a compound having 3 or more and less than 10 is denoted as B)”. For the same molecule, the IC50 in test [1] is 952 nM. Besides, in test [2], the “NRAS /KRAS” value was “B (a compound having 3 or more and less than 10 is denoted as B)”.

`CCCN1C(=O)[C@H](C2CCCC2)N(C)C(=O)C2(CCC2)NC(=O)[C@@H]2C[C@@H](OCC)CN2C(=O)[C@H](CCc2cc(F)c(C(F)(F)F)c(F)c2)NC(=O)CN(C)C(=O)[C@H](Cc2ccc(C(F)(F)F)cc2)N2CCCCC[C@@H](C2=O)N(C)C(=O)CN(C)C(=O)[C@H]([C@@H](C)CC)NC(=O)[C@H](CC(C)C)N(C)C(=O)C[C@H]1C(=O)N1CCOCC1` [PP0639]: on HRAS wild-type protein, the “HRAS /KRAS” value was “B (a compound having 3 or more and less than 10 is denoted as B)”. In test [1], this molecule yielded an IC50 of 631 nM. For the same molecule, the “NRAS /KRAS” value in test [2] was “B (a compound having 3 or more and less than 10 is denoted as B)”.

With `CCO[C@@H]1C[C@H]2C(=O)NC3(CCC3)C(=O)N(C)[C@@H](C3CCCC3)C(=O)N(CC)[C@H](C(=O)N(C)C)CC(=O)N(C)[C@@H](CC)C(=O)N[C@@H]([C@@H](C)CC)C(=O)N(C)CC(=O)N(C)[C@H]3CCCCN(C3=O)[C@@H](Cc3ccc(C(F)(F)F)cc3)C(=O)N(C)CC(=O)N[C@@H](CCc3cc(F)c(C(F)(F)F)c(F)c3)C(=O)N2C1` [PP0643], the “HRAS /KRAS” value on HRAS wild-type protein was “B (a compound having 3 or more and less than 10 is denoted as B)”. The molecule also displayed an IC50 in test [1] of 6.5 nM. Besides, the “NRAS /KRAS” value in test [2] is “C (A compound having a KD ratio of 0.1 or more and less than 3 is denoted as C)”.

Take `CCO[C@@H]1C[C@H]2C(=O)NC3(CCC3)C(=O)N(C)[C@@H](C3CCCC3)C(=O)N(CCC3CCC3)[C@H](C(=O)N(C)C)CC(=O)N(C)[C@@H](CC)C(=O)N[C@@H]([C@@H](C)CC)C(=O)N(C)CC(=O)N(C)[C@H]3CCCCN(C3=O)[C@@H](Cc3ccc(C(F)(F)F)cc3)C(=O)N(C)CC(=O)N[C@@H](CCc3cc(F)c(C(F)(F)F)c(F)c3)C(=O)N2C1` [PP0645]: on HRAS wild-type protein, the “HRAS /KRAS” value was “B (a compound having 3 or more and less than 10 is denoted as B)”. Further, the IC50 in test [1] was found to be 12 nM. Also, the “NRAS /KRAS” value in test [2] is “B (a compound having 3 or more and less than 10 is denoted as B)”.

`CCO[C@@H]1C[C@H]2C(=O)NC3(CCC3)C(=O)N(C)[C@@H](C3CCCC3)C(=O)N(CCc3ccccc3)[C@H](C(=O)N(C)C)CC(=O)N(C)[C@@H](CC)C(=O)N[C@@H]([C@@H](C)CC)C(=O)N(C)CC(=O)N(C)[C@H]3CCCCN(C3=O)[C@@H](Cc3ccc(C(F)(F)F)cc3)C(=O)N(C)CC(=O)N[C@@H](CCc3cc(F)c(C(F)(F)F)c(F)c3)C(=O)N2C1` [PP0647]: at HRAS wild-type protein, the “HRAS /KRAS” value is “B (a compound having 3 or more and less than 10 is denoted as B)”. In test [1], this molecule gave an IC50 of 45 nM. The “NRAS /KRAS” value in test [2] was “C (A compound having a KD ratio of 0.1 or more and less than 3 is denoted as C)”.
